The nature of data set [1]: Single-dose oral pharmacokinetics of CBD oil in beagles (serum CBD by LC-MS). The format is in vivo. The note with it: male, beagle, dog, median of 4 dogs, read-out: T½ elim (converted). Here is the method:
An initial investigation into single-dose oral pharmacokinetics was performed with 4 beagles (3.5-7 years, male castrated, 10.7-11.9 kg). Each dog received a 2 mg/kg and an 8 mg/kg oral dosage of CBD oil, with a 2-week washout period between each experiment. The dogs were fed two hours after dosing. Physical examination was performed at 0, 4, 8 and 24 hours after dosing. Attitude, behavior, proprioception, and gait were subjectively evaluated at each time point during free running/walking and navigation around standard traffic cones (weaving). Five ml of blood was collected at time 0, 0.5, 1, 2, 4, 8, 12 and 24 hours after oil administration. Blood samples were obtained via jugular venipuncture and transferred to a coagulation tube for 20 minutes. […]
From the UHPLC-QQQ-MS data, peak areas were extracted for CBD detected in biological samples and normalized to the peak area of the internal standard CBD-d3, in each sample using Skyline as well as an in-house R Script (www.r-project.org). CBD concentrations were calculated to nanograms per mL of serum as determined by the line of regression of the standard curve (r2=0.9994, 0-1000 ng/mL). For this assay, the limits of detection (LOD) and limits of quantification (LOQ) represent the lower limits of detection and quantification for each compound in the matrix of this study. […]

A short description of data set [2]: Feline pharmacokinetics (cannabidiol in serum by LC-MS/MS). The format is in vivo, cat. The arrangement: AUC 0 −> t: concentration or dose not given beside the values. Here is the method:
On the first day of dosing, blood was collected for a PK analysis from 6 of the 8 cats. The most cooperative cats were selected for the PK analysis. […] Samples were placed into a red top clotting tube with no serum separator. […] The harvested serum was placed in cyrovials stored at −70° C. Each tube was labeled with the cat id, date of collection and collection time point. Samples were shipped overnight on dry ice to the Proteomics & Metabolomics Facility at Colorado State University.
200 μL of cold (−20 C) 100% Acetonitrile (spiked with 60 ng/mL of d3-CBD) was added to each sample and vortexed at room temperature for 5 minutes. 200 μL of water was added and vortexed for an additional 5 minutes. 1 ml of 100% hexane was then added to each sample and vortexed for a final 5 minutes. […] The upper hexane layer was transferred to new-labeled glass vials (˜900 uL per sample), carefully avoiding the middle and lower layers.
An 8 point standard curve of CBD was generated in matrix background using a blank serum. Concentrations ranged from 0 ng/mL 1000 ng/mL (3.2× dilution series). 50 uL of each spiked serum sample was extracted as above.
LC-MS/MS was performed on a Waters Acquity M-Class UPLC coupled to a Waters Xevo TQ-S triple quadrupole mass spectrometer. […] Flow rate was 3.0 μL/min and injection volume was 2.0 μL. […]
Each target analyte was visually inspected for retention time and peak area integration. Peak areas were extracted for target compounds detected in biological samples and normalized to the peak area of the appropriate internal standard in each sample using in-house R Script (TQS-tools). CBD concentrations were calculated in nanograms per milliliter of extract (0.06 mL) and then back calculated to nanograms per mL of serum (0.05 mL of serum).
LOD are calculated based on the standard deviation of the response (Sy) of the 0 point calibration standard (i.e., 0 ng/mL CBD as an estimate on noise) and the slope of the calibration curve (S) at levels approximating the LOD according to the formula: LOD=^3*(Sy/S). […]

Where “and” joins values, the source holds several entries; their conditions need not be identical. Equal values may be shown once.

`C=C(C)[C@@H]1CCC(C)=C[C@H]1c1c(O)cc(CCCCC)cc1O` [Cannabidiol, cannabidiol]: the half-life in data set [1] (2 mg/kg single oral dose) is 4.2 h; in data set [1] (8 mg/kg single oral dose) it was 4.2 h; in data set [2] (serum, po, 2 mg/kg, individual cats, oral 2/mg/kg cannabidiol in capsule form, read-out: T½ el (converted)) it was 1.2 h. In data set [2] (individual cats, 0 time to last collection [24 hr]), the “AUC 0 −> t” value is 265.0 ng·h/mL and 54.2 ng·h/mL and 42.4 ng·h/mL and 212.2 ng·h/mL and 125.0 ng·h/mL and 134.2 ng·h/mL and 60.2 ng·h/mL. The same compound registered a Cmax in data set [2] (serum, po, 2 mg/kg) of 47.6 ng/mL.

(Values after patent publication US20220249586A1, “HEMP EXTRACT AND METHODS OF USE THEREOF” (ElleVet Sciences, priority 2019, published 2022).)
